Data: US8084647B2, “Two-photon probe for real-time monitoring of intracellular calcium ions, method for preparing the probe and method for real-time monitoring of intracellular calcium ions using the probe” (Korea University Industry and Academy Cooperation Foundation, priority 2007, dated 2011)
Where two headings read alike, the source gives them in different places. Blank lines part the entries; values can stand above or below the molecule they belong to.

Assays:
[1] = previously reported value, cited from earlier work
[2] = Two-photon excited fluorescence (TPEF) titration with Ca2+ (Kd^TP); type: binding; details: estimated from the two-photon titration curve
Description: In order to determine the Kd^TP for the two-photon process, the TPEF spectra were obtained with a DM IRE2 Microscope (Leica) excited by a mode-locked titanium-sapphire laser source (Coherent Chameleon, 90 MHz, 200 fs) set at wavelength 780 nm and output power 1230 mW, which corresponded to approximately 10 mW average power in the focal plane. The TPEF titration curves (FIG. 6) were obtained and fitted to Equation 3.

[3] = Reactivity for various metal ions (FIG. 10)
Description: FIG. 10 is a graph showing the reactivity of the compound of Formula 4 for various metal ions;

[4] = One-photon absorption and emission spectra, fluorescence quantum yield; type: physicochemical; details: for Φ fluorescence quantum yield: ±10%
Method: The absorption spectra of the compound of Formula 7 were recorded on a Hewlett-Packard 8453 diode array spectrophotometer, and the fluorescence spectra of the compound were obtained with Amico-Bowman series 2 luminescence spectrometer with a 1 cm standard quartz cell. The fluorescence quantum yield of the compound was determined by using Coumarin 307 as the reference by the literature method (J. N. Demas, G. A. Crosby, J. Phys. Chem. 1971, 75, 991-1024.).

[5] = Two-photon action spectra / two-photon cross section; type: physicochemical
Method: Thus, TPM images for samples stained with the compound of Formula 4 would be much brighter than those stained with commercial probe. In addition, the two-photon fluorescence enhancement factor (TFEF) estimated from the two-photon titration curve was 44 (Table 2), a value that allowed detection of Ca^2+ by TPM.
The two-photon cross section (δ) was determined by using femto second (fs) fluorescence measurement technique (S. K. Lee, W. J. Yang, J. J. Choi, C. H. Kim, S.-J, Jeon, B. R. Cho, Org. Lett. 2005, 7, 323-326).

[6] = Effect of pH on the reactivity (FIG. 11); type: physicochemical; details: biologically relevant pH range
Description: FIG. 11 is a graph showing the effect of pH on the reactivity of the compound of Formula 4;

[7] = system: acute rat hypothalamic slice; experiment: Two-photon microscopy of acute rat hypothalamic slices; type: cell-based
Method: Slices were prepared from the hippocampi and the hypothalmic of 2-day-old rat (SD). Coronal slices were cut into 400 μm thick using a vibrating-blade microtome in artificial cerebrospinal fluid (ACSF; 138.6 mM NaCl, 3.5 mM KCl, 21 mM NaHCO3, 0.6 mM NaH2PO4, 9.9 mM D-glucose, 1 mM CaCl2, and 3 mM MgCl2). Slices were incubated with the compound (10 μM) of Formula 7 in ACSF bubbled with 95% O2 and 5% CO2 for 30 min at 37° C. Slices were then washed three times with ACSF and transferred to glass-bottomed dishes (MatTek) and observed in a spectral confocal multi photon microscope.

[8] = system: astrocytes; experiment: Two-photon microscopy of cultured astrocytes; type: cell-based, rat; details: cultured astrocytes labeled with 2 μM probe
Method: Astrocytes were taken from cerebral cortices of 1-day-old rats (Sprague-Dawley; SD). Cerebral cortices were dissociated in Hank's balanced salt solution (HBSS; Gibco BRL, Gaithersburg, Md., USA) containing 3 U/ml papain (Worthington Biochemical Corporation, NJ, USA) and plated in 75 mm flasks. To prepare purified astrocytes culture, flasks were shaken for 6 h on a shaker at 37° C., and the floating cells that were displaced into the media were removed. Astrocytes were passaged with 5 min exposure to 0.25% trypsin and replated onto poly-D-lysin-coated glass coverslips at 50˜100 cells/mm^2 and were maintained in Dulbecco's modified Eagle's medium (DMEM; Gibco) supplemented with penicillin/streptomycin and 10% fetal bovine serum (FBS; Gibco) in a CO2 incubator at 37° C. After 7-15 days in vitro, astrocytes were washed three times with serum-free media, and then incubated with 2 μM of the compound of Formula 7 in serum-free media for 20 min at 37° C. The cells were washed three times with phosphate buffered saline (PBS; Gibco) and then imaged after further incubation in colorless serum-free media for 15 min.
The spontaneous increase in [Ca^2+]i also propagated between astrocytes, as indicated by the delayed activity in the neighboring astrocyte (FIGS. 15b and 15d).

[9] = One-photon fluorescence titration with Ca2+ (Kd^OP, enhancement factor, Hill plot); type: binding; details: presence of 39 μM Ca2+
Method: A series of calibration solutions containing various [Ca^2+] was prepared by mixing two solutions (solution A containing 10 mM K2EGTA and solution B containing 10 mM CaEGTA) in various ratios. Both solutions contained the compound (1 μM) of Formula 4, 100 mM KCl, 30 mM MOPS, and they were adjusted to pH 7.2.
Then, 203 μl of this solution was discarded and replaced by 203 μl of solution B (39 μM free Ca^2+), and the spectrum was recorded. This brings the CaEGTA concentration to 1.00 mM and the [Ca^2]free to about 0.017 μM with no change in the concentration of the probe or of the total EGTA. The [Ca^2+]free is calculated from the Kd of EGTA for Ca^2+ (150.5 nM) using Equation 2: […]
where F is the observed fluorescence intensity, Fmin is the minimum fluorescence intensity, and Fmax is the maximum fluorescence intensity. The Kd value that best fits the titration curve (FIG. 6) with Equation 5 was calculated by using the Excel program as reported (J. R. Long, R. S. Drago, J. Chem. Ed. 1982, 59, 1037; K. Hirose, J. Incl. Phenom. Macrocycl. Chem. 2001, 39, 193).
The dissociation constants (Kd^OP) were calculated from the fluorescence titration curves (FIG. 6), as reported (J. R. Long, R. S. Drago, J. Chem. Educ. 1982, 59, 1037-1039).

[10] = 30 mM MOPS, 100 mM KCl, 10 mM EGTA, pH 7.2, absence of free Ca2+
[11] = MOPS buffer pH 7.2, presence of 39 μM free Ca2+
[12] = prolonged observation time in tissue

Molecule: Oregon Green 488 BAPTA-1 [OG1]
FEF^OP fluorescence enhancement factor (F − Fmin)/Fmin, one-photon [1]: 14
FEF^OP fluorescence enhancement factor (F − Fmin)/Fmin, one-photon ([1]; listed as OG1 + Ca^2+): 14^[l]/nd

FEF^TP two-photon fluorescence enhancement factor [2]: 44
λmax^(l) one-photon absorption [4, 10]: 365 nm
λmax^fl one-photon emission [4, 10]: 498 nm
Φ fluorescence quantum yield [4, 10]: 0.012
λmax^(l) one-photon absorption [4, 11]: 365 nm
λmax^fl one-photon emission [4, 11]: 498 nm
Φ fluorescence quantum yield [4, 11]: 0.49
Φδ / TPEF relative to OG1-Ca2+ ([5]; Ca2+ complexes in buffer): 5 fold
Φδ two-photon action cross section ([5]; presence of 39 μM free Ca2+): 110 GM
λmax^(2) of the two-photon excitation spectra ([5]; presence of 39 μM free Ca2+): 780 nm
δ peak two-photon cross section ([5]; presence of 39 μM free Ca2+, ±15%): 230 GM
pH sensitivity [6]: pH-insensitive
photo-stability [7, 12]: high photo-stability
FEF^OP fluorescence enhancement factor (F − Fmin)/Fmin, one-photon [9]: 40
fluorescence enhancement factor relative to OG1 [9]: ~3 fold
Molecule: CC(=O)c1ccc2cc(N(C)CC(=O)Nc3ccc(N(CC(=O)O)CC(=O)O)c(OCCOc4ccccc4N(CC(=O)O)CC(=O)O)c3)ccc2c1 [Formula 4]
response toward CO^2+ [3]: much weaker response
response toward Cu^2+ [3]: no response
response toward Fe^2+ [3]: much weaker response
response toward Mg^2+ [3]: much weaker response
response toward Mn^2+ [3]: modest response
response toward Zn^2+ [3]: modest response
imaging depth in live tissue ([7]; TPM): ~170 μm
photo-toxicity [7, 12]: low photo-toxicity
visualization of calcium waves by TPM [8]: clearly capable of visualizing the intra- and intercellular calcium waves
